What all share (assay type): functional
The subject of test [1] is Rattus norvegicus. Kind of test: Anti-hypertensive activity in Wistar rat assessed as systolic blood pressure at 10 mg/kg, iv after 5 mins (reference value: 110 to 124.6 mmHg).
Test [2] concerns Rattus norvegicus. The experiment in a line: Anti-hypertensive activity in Wistar rat assessed as diastolic blood pressure at 10 mg/kg, iv after 5 mins (reference value: 77.15 to 94.4 mmHg).
Test [3] concerns Rattus norvegicus. The experiment in a line: Anti-hypertensive activity in Wistar rat assessed as systolic blood pressure at 10 mg/kg, iv after 15 mins (reference value: 110 to 124.6 mmHg).
Test [4] has as its system Rattus norvegicus. Kind of test: Anti-hypertensive activity in Wistar rat assessed as diastolic blood pressure at 10 mg/kg, iv after 15 mins (reference value: 77.15 to 94.4 mmHg).
Test [5] has as its system Rattus norvegicus. Kind of test: Anti-hypertensive activity in Wistar rat assessed as systolic blood pressure at 10 mg/kg, iv after 30 mins (reference value: 110 to 124.6 mmHg).
The subject of test [6] is Rattus norvegicus. The experiment in a line: Anti-hypertensive activity in Wistar rat assessed as diastolic blood pressure at 10 mg/kg, iv after 30 mins (reference value: 77.15 to 94.4 mmHg).
Test [7] has as its system Rattus norvegicus. The experiment in a line: Anti-hypertensive activity in Wistar rat assessed as systolic blood pressure at 10 mg/kg, iv after 60 mins (reference value: 110 to 124.6 mmHg).
Test [8] has as its system Rattus norvegicus. Kind of test: Anti-hypertensive activity in Wistar rat assessed as diastolic blood pressure at 10 mg/kg, iv after 60 mins (reference value: 77.15 to 94.4 mmHg).
In test [9] the test system is Rattus norvegicus. The experiment in a line: Anti-hypertensive activity in Wistar rat assessed as systolic blood pressure at 10 mg/kg, iv after 120 mins (reference value: 110 to 124.6 mmHg).
For test [10], the system named is Rattus norvegicus. Kind of test: Anti-hypertensive activity in Wistar rat assessed as diastolic blood pressure at 10 mg/kg, iv after 120 mins (reference value: 77.15 to 94.4 mmHg).
Test [11] deals with Rattus norvegicus. The experiment in a line: Anti-hypertensive activity in Wistar rat assessed as systolic blood pressure at 10 mg/kg, iv after 150 mins (reference value: 110 to 124.6 mmHg).
Test [12] has as its system Rattus norvegicus. The experiment in a line: Anti-hypertensive activity in Wistar rat assessed as diastolic blood pressure at 10 mg/kg, iv after 150 mins (reference value: 77.15 to 94.4 mmHg).
For test [13], the system named is Rattus norvegicus. Kind of test: Anti-hypertensive activity in Wistar rat assessed as systolic blood pressure at 10 mg/kg, iv after 180 mins (reference value: 110 to 124.6 mmHg).
The subject of test [14] is Rattus norvegicus. Kind of test: Anti-hypertensive activity in Wistar rat assessed as diastolic blood pressure at 10 mg/kg, iv after 180 mins (reference value: 77.15 to 94.4 mmHg).

From ChEMBL document CHEMBL3877319, “Synthesis of Ofornine mimics from natural product l-vasicine as anti-hypertensive agents” (Bioorg Med Chem, 2017) come the findings set out here.

As for `O[C@@H]1CCN(Cc2ccccc2)C1`, the Activity in the test with Rattus norvegicus [1] is given as 107.9 mmHg; in the test with Rattus norvegicus [2], 52.65 mmHg; with Rattus norvegicus [3], 116.4 mmHg; in the test on Rattus norvegicus [4], 57.86 mmHg; with Rattus norvegicus [5], 119.3 mmHg; in the test on Rattus norvegicus [6] it was 70.89 mmHg. For the same compound, the Activity in the test with Rattus norvegicus [7] stood at 121.4 mmHg; with Rattus norvegicus [8] it was 77.25 mmHg; in the test with Rattus norvegicus [9] it was 112.3 mmHg; in the test on Rattus norvegicus [10], 74.19 mmHg; in the test on Rattus norvegicus [11], 114.6 mmHg; in the test with Rattus norvegicus [12], 78.62 mmHg. Also, the Activity in the test with Rattus norvegicus [13] is listed as 118.9 mmHg; with Rattus norvegicus [14] it was 83.15 mmHg.

As for `O=C(c1ccccc1-n1cc(-c2ccc(-c3ccccc3)cc2)nn1)N1CC[C@@H](O)C1`, the Activity with Rattus norvegicus [1] turned out to be 112 mmHg; in the test with Rattus norvegicus [2], 82 mmHg; in the test on Rattus norvegicus [3], 113 mmHg; in the test with Rattus norvegicus [4], 82 mmHg; with Rattus norvegicus [5] it was 106.9 mmHg; in the test with Rattus norvegicus [6] it was 79.1 mmHg. Besides, the Activity stood at 110.1 mmHg in the test with Rattus norvegicus [7]; 86.8 mmHg in the test on Rattus norvegicus [8]; 107.3 mmHg in the test with Rattus norvegicus [9]; 87.8 mmHg in the test with Rattus norvegicus [10]; 116.3 mmHg in the test on Rattus norvegicus [11]; 81.3 mmHg with Rattus norvegicus [12]. In addition, the Activity in the test with Rattus norvegicus [13] worked out at 109.6 mmHg; in the test on Rattus norvegicus [14], 78.3 mmHg.

`CCCc1cn([C@@H]2CCN(C(=O)c3ccccc3Nc3ccncc3)C2)nn1`: the Activity is listed as 82.7 mmHg in the test on Rattus norvegicus [1]; 44.5 mmHg in the test on Rattus norvegicus [2]; 86.8 mmHg in the test with Rattus norvegicus [3]; 53.4 mmHg in the test with Rattus norvegicus [4]; 118.8 mmHg with Rattus norvegicus [5]; 78.5 mmHg in the test on Rattus norvegicus [6]. In addition, the Activity in the test on Rattus norvegicus [7] was 114.8 mmHg; with Rattus norvegicus [8], 83.7 mmHg; with Rattus norvegicus [9], 118.1 mmHg; in the test with Rattus norvegicus [10] it was 82.7 mmHg; with Rattus norvegicus [11], 119.9 mmHg; in the test with Rattus norvegicus [12] it was 81.5 mmHg. Moreover, the values for the Activity in the test on Rattus norvegicus [13] and with Rattus norvegicus [14] were 118.8 mmHg and 84.5 mmHg, respectively.

Regarding `O=C(c1ccccc1-n1cc(-c2ccc(F)cc2)nn1)N1CC[C@@H](O)C1`, the Activity was 103.3 mmHg with Rattus norvegicus [1]; 76.5 mmHg in the test on Rattus norvegicus [2]; 120.1 mmHg with Rattus norvegicus [3]; 74.8 mmHg with Rattus norvegicus [4]; 118.9 mmHg with Rattus norvegicus [5]; 77.9 mmHg in the test with Rattus norvegicus [6]. The Activity with Rattus norvegicus [7] amounted to 122.4 mmHg; in the test on Rattus norvegicus [8] it was 95 mmHg; in the test on Rattus norvegicus [9] it was 121.6 mmHg; with Rattus norvegicus [10], 88 mmHg; in the test on Rattus norvegicus [11], 121.8 mmHg; in the test with Rattus norvegicus [12], 88.8 mmHg. Also, the Activity in the test with Rattus norvegicus [13] was 121.5 mmHg; in the test with Rattus norvegicus [14], 90.8 mmHg.

With `O=C(c1ccccc1-n1cc(C2CC2)nn1)N1CC[C@@H](O)C1`, the Activity worked out at 113.8 mmHg with Rattus norvegicus [1]; 79.6 mmHg in the test on Rattus norvegicus [2]; 114.91 mmHg in the test with Rattus norvegicus [3]; 90.7 mmHg in the test with Rattus norvegicus [4]; 118.1 mmHg in the test on Rattus norvegicus [5]; 84.35 mmHg in the test on Rattus norvegicus [6]. Also, the Activity with Rattus norvegicus [7] turned out to be 120 mmHg; in the test with Rattus norvegicus [8], 82.75 mmHg; in the test with Rattus norvegicus [9] it was 120.4 mmHg; with Rattus norvegicus [10], 83.3 mmHg; in the test with Rattus norvegicus [11], 121.7 mmHg; with Rattus norvegicus [12], 84.3 mmHg. The Activity with Rattus norvegicus [13] stood at 123.7 mmHg; in the test with Rattus norvegicus [14], 86.6 mmHg.

In the case of `[N-]=[N+]=N[C@@H]1CCN(C(=O)c2ccccc2Nc2ccncc2)C1`, the Activity in the test with Rattus norvegicus [1] is reported as 86.15 mmHg; in the test with Rattus norvegicus [2], 59.8 mmHg; with Rattus norvegicus [3], 97 mmHg; in the test on Rattus norvegicus [4], 67.75 mmHg; in the test with Rattus norvegicus [5], 108.4 mmHg; in the test on Rattus norvegicus [6], 79.7 mmHg. Further, the Activity with Rattus norvegicus [7] is on record as 111.6 mmHg; in the test with Rattus norvegicus [8] it was 81.4 mmHg; in the test on Rattus norvegicus [9], 115.6 mmHg; with Rattus norvegicus [10], 80.3 mmHg; with Rattus norvegicus [12] it was 77.3 mmHg; in the test with Rattus norvegicus [13], 115.3 mmHg.

In the case of `Nc1ccccc1C(=O)N1CCC(O)C1` (single isomer, unassigned), the Activity is on record as 107.8 mmHg in the test with Rattus norvegicus [1]; 80.42 mmHg with Rattus norvegicus [2]; 123.4 mmHg in the test with Rattus norvegicus [3]; 86.88 mmHg in the test on Rattus norvegicus [4]; 124.3 mmHg in the test on Rattus norvegicus [5]; 82.62 mmHg in the test on Rattus norvegicus [6]. Moreover, the Activity in the test on Rattus norvegicus [7] turned out to be 119.5 mmHg; in the test with Rattus norvegicus [8] it was 82.62 mmHg; in the test with Rattus norvegicus [9], 118.8 mmHg; in the test on Rattus norvegicus [10] it was 79.57 mmHg; in the test on Rattus norvegicus [11], 121.4 mmHg; in the test on Rattus norvegicus [12], 79.95 mmHg. Further, the Activity with Rattus norvegicus [13] was found to be 123.1 mmHg; in the test on Rattus norvegicus [14], 86.45 mmHg.

In the case of `O=C(c1ccccc1Nc1ccncc1)N1CCCCC1` [OFORNINE], the Activity in the test with Rattus norvegicus [1] was determined as 83.3 mmHg; in the test on Rattus norvegicus [2], 53.3 mmHg; with Rattus norvegicus [3], 89.45 mmHg; in the test with Rattus norvegicus [4], 61 mmHg; in the test on Rattus norvegicus [5] it was 89.5 mmHg; in the test with Rattus norvegicus [6], 62.8 mmHg. Besides, the Activity in the test with Rattus norvegicus [7] is 88.6 mmHg; in the test on Rattus norvegicus [8], 64.05 mmHg; in the test with Rattus norvegicus [9], 90.5 mmHg; in the test with Rattus norvegicus [10], 64.5 mmHg; in the test on Rattus norvegicus [11], 113.8 mmHg; in the test on Rattus norvegicus [12], 77.9 mmHg. Further, the Activity with Rattus norvegicus [13] is 117 mmHg; with Rattus norvegicus [14], 90.8 mmHg.

Consider `O=C(c1ccccc1Nc1ccncc1)N1CC[C@@H](n2cc(-c3ccccc3)nn2)C1`, for which the Activity stood at 85.3 mmHg in the test with Rattus norvegicus [1]; 58.7 mmHg in the test on Rattus norvegicus [2]; 94.3 mmHg in the test on Rattus norvegicus [3]; 65.5 mmHg with Rattus norvegicus [4]; 100.7 mmHg with Rattus norvegicus [5]; 70.2 mmHg with Rattus norvegicus [6]. For the same compound, the Activity in the test with Rattus norvegicus [7] is given as 109.8 mmHg; in the test with Rattus norvegicus [8] it was 72.2 mmHg; with Rattus norvegicus [9], 116.2 mmHg; with Rattus norvegicus [10], 80 mmHg; in the test with Rattus norvegicus [11] it was 120.8 mmHg; in the test on Rattus norvegicus [12], 80.15 mmHg. The Activity was 121.2 mmHg with Rattus norvegicus [13] and 86.75 mmHg in the test on Rattus norvegicus [14].

With `O=C(c1ccccc1Nc1ccncc1)N1CC[C@@H](n2cc(C3CC3)nn2)C1`, the Activity in the test with Rattus norvegicus [1] came out at 116.4 mmHg; in the test with Rattus norvegicus [2], 77.08 mmHg; in the test with Rattus norvegicus [3] it was 115.1 mmHg; with Rattus norvegicus [4], 79.63 mmHg; in the test with Rattus norvegicus [5], 112.2 mmHg; with Rattus norvegicus [6] it was 76.29 mmHg. The Activity is given as 108.2 mmHg in the test with Rattus norvegicus [7]; 73.85 mmHg with Rattus norvegicus [8]; 111.6 mmHg in the test with Rattus norvegicus [9]; 86.96 mmHg in the test with Rattus norvegicus [10]; 110.4 mmHg in the test on Rattus norvegicus [11]; 85.74 mmHg in the test on Rattus norvegicus [12]. Besides, the Activity turned out to be 117.2 mmHg with Rattus norvegicus [13] and 86.32 mmHg with Rattus norvegicus [14].

On to `CCCCCc1cn([C@@H]2CCN(C(=O)c3ccccc3Nc3ccncc3)C2)nn1`, for which the Activity with Rattus norvegicus [1] is 96.7 mmHg; with Rattus norvegicus [2] it was 73.2 mmHg; in the test on Rattus norvegicus [3], 101.7 mmHg; in the test on Rattus norvegicus [4], 80.5 mmHg; in the test with Rattus norvegicus [5], 103.8 mmHg; in the test on Rattus norvegicus [6], 77.6 mmHg. In addition, the Activity came to 105.4 mmHg in the test with Rattus norvegicus [7]; 80.2 mmHg with Rattus norvegicus [8]; 109.8 mmHg in the test on Rattus norvegicus [9]; 80.5 mmHg in the test with Rattus norvegicus [10]; 114.9 mmHg with Rattus norvegicus [11]; 81.9 mmHg in the test with Rattus norvegicus [12]. The figures for the Activity in the test with Rattus norvegicus [13] and in the test with Rattus norvegicus [14] were 117.6 mmHg and 85.4 mmHg, respectively.

On to `CCCCCc1ccc(-c2cn([C@@H]3CCN(C(=O)c4ccccc4Nc4ccncc4)C3)nn2)cc1`, for which the Activity came out at 86.15 mmHg with Rattus norvegicus [1]; 59.8 mmHg with Rattus norvegicus [2]; 97 mmHg in the test with Rattus norvegicus [3]; 67.75 mmHg with Rattus norvegicus [4]; 108.4 mmHg in the test on Rattus norvegicus [5]; 79.7 mmHg in the test with Rattus norvegicus [6]. The Activity is reported as 111.6 mmHg in the test on Rattus norvegicus [7]; 81.4 mmHg with Rattus norvegicus [8]; 115.6 mmHg in the test on Rattus norvegicus [9]; 80.3 mmHg in the test on Rattus norvegicus [10]; 77.3 mmHg in the test on Rattus norvegicus [12]; 115.3 mmHg in the test with Rattus norvegicus [13].
